Patent US20080131420A1, “METHODS AND COMPOSITIONS FOR TREATING MUCOSAL INFLAMMATION” (Accentia, Inc., priority 2006, published 2008)
“Also recorded” adds a separate entry of the source.

Key:
Type in all cases: cell-based
Alternaria alternata [1] = assay: Cylinder Agar Plate Assay (Example 3)
Text: Cetyl pyridinium chloride (CPC) and benzalkonium chloride (BKC) were both independently tested to determine their efficacy of inhibiting Alternaria alternata, a fungus typically associated with non-invasive fungus-induced rhinosinusitis. An in vitro test of the efficacy of BKC and CPC in combination was also completed against Alternaria alternata.
Five concentrations of BKC and CPC were independently tested against Alternaria alternata in a cylinder Agar Plate Assay. The CPC concentrations were 0.005%, 0.01%, 0.05%, 0.25% and 1.0%, whereas the BKC concentrations were 0.00025%, 0.001%, 0.005%, 0.025%, and 0.1%. These concentrations were chosen to include the concentrations in the SINOFRESH product as well as two concentrations above and two concentrations below the SINOFRESH product.
Five concentrations of a combination of BKC and CPC were independently tested against Alternaria alternata in a cylinder Agar Plate Assay. The concentrations were as follows:
Five concentrations of the SINOFRESH product were also subjected to the same Agar Plate Assay, with the same concentrations of BKC and CPC.

Alternaria alternata [2] = assay: Inhibition of Alternaria alternata in RPMI-1640 broth tubes, visual growth rating 0-4 (Example 2); conditions: spiked, 48 hours at 30-35°
Description: Amphotericin-B and Parabens (methylparaben and propylparaben) were tested for their ability to inhibit the fungus Alternaria alternata. Samples were stored at 2-8° C. prior to use.
Prepared an inoculating culture of Alternaria alternata by placing an ATCC pellet in 5 mL phosphate buffer, after dissolution spread the broth and dissolved pellet over the surface of a PDA plate using a FIG. 8 motion. The inoculum plate was incubated for five days at 20-25° C.
After the five day incubation period, 3 ml of modified phosphate buffer was used to wet the surface growth of the PDA plate. The surface of the culture was washed with the buffer using a sterile spreader stick. After washing, a 10 mL pipette was used to remove as much of the wash as is possible without picking up any agar. The wash was pipetted into a sterile culture tube.
Serial dilutions of the wash modified phosphate buffer were performed using modified phosphate buffer to determine the dilution that yields a mold population of 10^6 per mL. The dilutions were done by pipetting 1 mL of each dilution of the wash into molten potato dextrose agar plates pH 3.5 in quadruplicate, incubating at 20-25° C. for five days, assuring that there are not mixed cultures, and then counting the colonies on the plates. The correct dilution yielded counts of 30-300 CFU's. To maintain the correct dilution for inoculation, all dilutions were refrigerated at 2-8° C. until needed. […] A 0.1 mL aliquot of this dilution was used to inoculate the inhibition culture tubes.
Twelve sterile test tubes were prepared with 9 mL Modified Synthetic Medium RPMI-1640 broth that has been tempered in a 45-50° C. water bath and labeled as follows: Amphotericin B neg. control, Ampho-B 100 spike, Ampho-B 2 spike, Ampho-B 1 spike, Ampho-B 0.5 spike, Paraben neg. control, Paraben 400/100 spike, Paraben 300/75 spike, Paraben 200/50 spike, Paraben 100/25 spike, Pos. control, Neg control.
An Amphotericin-B suspension was prepared by placing in suspension 10 mg of Amphotericin-B in 10 mL in modified phosphate buffer. The sample was mixed by vortex for 30 seconds. […]
Control samples, Amphotericin B and Parabens dilutions were all prepared from the stock solutions. To all tube labeled “spike” and positive control, 0.1 mL of the inoculated buffer was added and determined to yield […]. […] The growth in each tube was recorded visually, on a 0-4 scale: 0: no growth observed, 1: slight growth or ˜25% of the growth control, 2: prominent growth or ˜50% of the growth control, 3: slight reduction in growth or ˜75% of the growth control, and 4: no reduction in growth or 100% of the growth control. […]

Alternaria alternata [3] = assay: Antifungal Efficacy, sample diluted and plated, plates read for mold growth (Example 1); conditions: 100% sample; diluted and plated at 1, 4, 24 and 48 hours of incubation; plate read on days 2, 3 and 5
Description: SINOFRESH Essential Nasal Cleansing Formula, which included cetylpyridinium chloride (CPC) at 0.02% and benzalkonium chloride (BKC) at 0.005%, was tested for its ability to inhibit Alternaria alternata, a fungus typically associated with non-invasive fungus-induced rhinosinusitis. Minimum Inhibitory Concentration (MIC), Antifungal Efficacy, and Selective Agar Streak were all determined, and met the pre-defined acceptance criteria that the negative control test tube had to remain free of growth throughout the study, while the positive control tube had to retain growth throughout the study. No deviations were noted during the study.
A 100% sample of 0.02% cetylpyridinium chloride was tested for antifungal efficacy. At 1, 4, 24, and 48 hours of incubation, the sample was diluted and plated. On days 2, 3, and 5, the plate was read.

benzalkonium chloride [BKC]
effect on the growth of Alternaria alternata (Alternaria alternata [1]; BKC alone at 0.005% (concentration in the SINOFRESH product)): little to no effect; also recorded: essentially inactive
effect on the growth of Alternaria alternata (Alternaria alternata [1]; BKC alone at concentrations of about 0.025% or above): some effect

C[C@@H]1[C@H](O)[C@@H](C)/C=C/C=C/C=C/C=C/C=C/C=C/C=C/[C@H](O[C@@H]2O[C@H](C)[C@@H](O)[C@H](N)[C@@H]2O)C[C@@H]2O[C@](O)(C[C@@H](O)C[C@@H](O)[C@H](O)CC[C@@H](O)C[C@@H](O)CC(=O)O[C@H]1C)C[C@H](O)[C@H]2C(=O)O [Amphotericin B]
Rating (growth, 0-4 scale) (Alternaria alternata [2]; 0.5 μg/mL): 2 (prominent growth or ˜50% of the growth control)
Rating (growth, 0-4 scale) (Alternaria alternata [2]; 1.0 μg/mL): 2 (prominent growth or ˜50% of the growth control)
Rating (growth, 0-4 scale) (Alternaria alternata [2]; 2.0 μg/mL): 1 (slight growth or ˜25% of the growth control)
Rating (growth, 0-4 scale) (Alternaria alternata [2]; 100 μg/mL): 1 (slight growth or ˜25% of the growth control)

CCCCCCCCCCCCCCCC[n+]1ccccc1 [CPC, cetylpyridinium chloride]
effect on the growth of Alternaria alternata (Alternaria alternata [1]; CPC alone at 0.005%, 0.01%, 0.05%, 0.25% and 1.0%): most observable effect
mold growth on plate (Alternaria alternata [3]): did not exhibit any mold growth
